Reference: ChEMBL document CHEMBL5726907, “FXR (NR1H4) modulating compounds” (2018)

Biological target: T1, Bile acid receptor (Homo sapiens, UniProt Q96RI1)
T1 sequence (Q96RI1 whole entry): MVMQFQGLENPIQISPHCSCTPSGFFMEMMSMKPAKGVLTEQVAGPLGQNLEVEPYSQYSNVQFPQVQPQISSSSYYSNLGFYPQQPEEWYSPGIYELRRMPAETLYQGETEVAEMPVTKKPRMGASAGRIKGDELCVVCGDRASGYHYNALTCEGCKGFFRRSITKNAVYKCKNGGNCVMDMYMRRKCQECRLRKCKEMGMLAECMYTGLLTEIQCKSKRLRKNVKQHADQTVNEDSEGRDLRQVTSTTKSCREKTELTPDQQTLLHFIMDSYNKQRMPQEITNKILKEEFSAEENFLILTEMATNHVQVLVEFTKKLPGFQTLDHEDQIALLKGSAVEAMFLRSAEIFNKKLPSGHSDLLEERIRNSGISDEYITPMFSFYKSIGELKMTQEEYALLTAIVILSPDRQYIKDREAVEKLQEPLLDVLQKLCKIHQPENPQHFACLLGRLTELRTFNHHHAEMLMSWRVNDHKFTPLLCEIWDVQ
Test: FRET Activity Assay: The human FXRalpha LBD was expressed in E. coli strain BL21(DE3) as an N-terminally GST tagged fusion protein. The DNA encoding the FXR ligand binding domain was cloned into vector pDEST15 (Invitrogen). Expression was under control of an IPTG inducible T7 promoter. The amino acid boundaries of the ligand binding domain were amino acids 187-472 of Database entry NM_005123 (RefSeq). Expression and purification of the FXR-LBD: An overnight preculture of a transformed E. coli strain was diluted 1:20 in LB-Ampicillin medium and grown at 30° C. to an optical density of =0.4-0.6. Gene expression was then induced by addition of 0.5 mM IPTG. Cells were incubated an additional 6 h at 30° C., 180 rpm. Cells were collected by centrifugation (7000×g, 7 min, rt). Per liter of original cell culture, cells were resuspended in 10 mL lysis buffer (50 mM Glucose, 50 mM Tris pH 7.9, 1 mM EDTA and 4 mg/mL lysozyme) and left on ice for 30 min. Cells were then subjected to sonication and cell debris removed via centrifugation (22000×g, 30 min, 4° C.). Per 10 mL of supernatant 0.5 mL prewashed Glutathione 4B sepharose slurry (Qiagen) was added and the suspension kept slowly rotating for 1 h at 4° C. Glutathione 4B sepharose beads were pelleted by centrifugation (2000× g, 15 sec, 4° C.) and washed twice in wash buffer (25 mM Tris, 50 mM KCl, 4 mM MgCl2 and IM NaCl). […]

SMILES | IC50 [nM]
O=C(O)c1ccc2nc(C3(O)C4COCC3CC(OCc3c(-c5c(Cl)cccc5Cl)noc3C3CC3)C4)sc2c1 (configuration not stated) | 30
O=C(O)c1cc(F)c2nc(C3(O)C4COCC3CC(OCc3c(-c5c(Cl)cccc5Cl)noc3C3CC3)C4)sc2c1 (configuration not stated) | 19
